Results from patent US20040242627A1, “2-Iminoimidazole derivatives (1)” (priority 2001, published 2004).
Structures can show the parent of a compound that is named as a salt.

Key:
[1] = target: T1, PAR1 thrombin receptor (Homo sapiens, UniProt P25116); assay: Receptor binding assay (high affinity TRAP displacement, platelet membrane); settings: platelet membrane of healthy adult, [3H] high affinity TRAP, 37° C. 1 hour; read-out: RBA IC50
T1 construct: homogenized with a Dounce homogenizer, and then centrifuged at 40,000 g for 60 minutes to yield platelet membrane; from tissue; host or cells: platelet membrane prepared from the blood of a healthy adult donor
T1 sequence (P25116 22-425): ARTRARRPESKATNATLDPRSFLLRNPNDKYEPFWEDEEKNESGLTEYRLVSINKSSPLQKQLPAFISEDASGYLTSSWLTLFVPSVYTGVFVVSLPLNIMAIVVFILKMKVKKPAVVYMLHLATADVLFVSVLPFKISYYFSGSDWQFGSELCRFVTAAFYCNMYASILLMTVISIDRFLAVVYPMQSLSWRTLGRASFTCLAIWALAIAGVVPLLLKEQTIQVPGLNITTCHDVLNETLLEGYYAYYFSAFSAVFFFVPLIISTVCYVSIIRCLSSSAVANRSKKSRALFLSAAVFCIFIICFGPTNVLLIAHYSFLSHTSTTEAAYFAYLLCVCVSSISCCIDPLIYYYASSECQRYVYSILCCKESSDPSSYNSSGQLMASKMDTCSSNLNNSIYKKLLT
Method: Blood was sampled from a healthy adult who had taken no drugs for one week, and 3.8% citric acid (a ratio of 1:9 with respect to the blood) was added as an anticoagulant. The mixture was then centrifuged at 100 g for 10 minutes at room temperature to yield platelet rich plasma (PRP). The platelet precipitate obtained by centrifuging the PRP was homogenized with a Dounce homogenizer, and then centrifuged at 40,000 g for 60 minutes to yield platelet membrane. The platelet membrane was suspended in a solution prepared by adding DMSO (dimethyl sulfoxide) at 1% concentration to Buffer 1: a 50 mM Tris-HCl buffer containing 10 mM MgCl2 and 1 mM EGTA (ethylene glycol tetraacetic acid), and the suspension was stored at −80° C. Bovine albumin and DMSO were added to Buffer 1 at 0.1% and 20%, respectively, to make a preparation solution for the test compound. […] Next, 30 μl of liquid scintillator was added for measurement of the radioactivity of the plate using a Top Counter (Packard), the value of the radioactivity in the presence of the test compound minus non-specific binding portion was divided by the specific binding value (the value of the binding in the absence of the compound minus the non-specific binding portion) to determine the binding ratio, from which the IC50 value was calculated. […]

[2] = system: platelet rich plasma (PRP), thrombin-induced platelet aggregation; assay: Inhibitory effects on platelet aggregation using platelet rich plasma (thrombin-induced); type: cell-based; settings: Homo sapiens, PRP of healthy adult, thrombin 0.5-1.5 units/ml, area under aggregation curve, read-out: Thr IC50
Method: [Inhibitory Effects on Platelet Aggregation using Platelet Rich Plasma]
Blood was sampled from a healthy adult who had taken no drugs for one week, and 3.8% citric acid (a ratio of 1:9 with respect to the blood) was added as an anticoagulant. The mixture was then centrifuged at 100 g for 10 minutes at room temperature to yield platelet rich plasma (PRP). The PRP-removed blood was further centrifuged at 1000 g for 10 minutes to yield platelet poor plasma (PPP). The number of platelet was counted using a multi-parameter automatic hemocyte counter (K4500, Sysmex), and the PRP was diluted to approximately 300,000/μl with the PPP. The platelet aggregation activity was determined in the following manner using an Aggregometer (MC Medical). […] After addition of thrombin, the aggregation reaction was examined for 6 minutes and the areas under the aggregation curves were compared to determine the inhibition ratio, from which the IC50 value was calculated.

## CC(C)(C)c1cc(C(=O)Cn2c(=N)n(Cc3ccc(N)cc3)c3ccccc32)cc(C(C)(C)C)c1O [Example 40, 2-[3-(4-amino-benzyl)-2-imino-2,3-di-hydro-benzimida-zol-1-yl]-1-(3,5-di-tert-bu-tyl-4-hydroxy-phenyl)-ethanone dihydrochloride]
[1]
  IC50: 0.26 µM
[2]
  IC50: 1.3 µM
